Results published in patent US8420657B2 (Novartis AG, priority 2008, dated 2013).

Legend:
[1] = test system: JAK1/JAK2-dependent nuclear translocation of STAT1-GFP in HT1080 fibrosarcoma cells; assay: STAT1 nuclear translocation assay (Cellomics), IFN-γ stimulated HT1080 STAT1-GFP cells; type: cell-based
How it was run: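 IC50 derived from percent nuclear STAT1-GFP translocation, computed from nuclear minus cytoplasmic GFP intensity against untreated baseline and DMSO-stimulated control. Stable HT1080 STAT1-GFP cells received compound (0.003–10 μM, 0.1% DMSO) 30 min ahead of a 2 h 100 ng/ml IFN-γ stimulus, then fixation and Hoechst nuclear masking.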

[2] = biological target: T1, GST-JAK2(808-1132) (Homo sapiens, UniProt O60674); assay: JAK2 kinase assay (Caliper mobility shift, LabChip 3000); type: biochemical
T1 construct: GST-JAK2(808-1132); purchased Invitrogen (Carlsbad, USA) #4288
T1 sequence (O60674 808-1132): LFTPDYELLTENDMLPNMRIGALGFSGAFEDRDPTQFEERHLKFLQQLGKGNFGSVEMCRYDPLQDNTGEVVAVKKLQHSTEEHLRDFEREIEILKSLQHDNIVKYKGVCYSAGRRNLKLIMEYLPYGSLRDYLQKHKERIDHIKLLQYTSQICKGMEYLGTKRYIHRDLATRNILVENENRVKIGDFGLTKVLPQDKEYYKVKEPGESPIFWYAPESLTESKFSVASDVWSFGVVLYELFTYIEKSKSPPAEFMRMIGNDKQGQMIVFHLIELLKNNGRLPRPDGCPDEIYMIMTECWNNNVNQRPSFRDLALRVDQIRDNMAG
How it was run: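 Eight-point compound series (final 10–0.003 μM) tested on purchased GST-JAK2 kinase domain (808-1132). Peptide FITC-JAK3tide plus ATP reacted 60 min, 30 °C, then quenched with EDTA; turnover from charge-based separation of substrate and product.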

[3] = Homo sapiens, HT-1080, STAT1 translocation pathway

Row | SMILES | IC50 [1, 3] [nM] | IC50 [2] [nM] | IC50 ([1]; STAT1 translocation pathway) [nM]
1 | CS(=O)(=O)c1ccc(-n2ccc3cnc(Nc4cccc(C(=O)N5CCOCC5)c4)nc32)cc1 [Example 49, {3-[7-(4-Methanesulfonyl-phenyl)-7H-pyrrolo[2,3-d]pyrimidin-2-ylamino]-phenyl}-morpholin-4-yl-methanone] | 878 | 14 | –
2 | Cc1cc(-n2ccc3cnc(Nc4ccc(OC(C)C)cc4)nc32)ccc1C(=O)N1CCOCC1 [Example 100, {4-[2-(4-Isopropoxy-phenylamino)-pyrrolo[2,3-d]pyrimidin-7-yl]-2-methyl-phenyl}-morpholin-4-yl-methanone] | 510 | < 3 | –
3 | CC(C)Oc1ccc(Nc2ncc3ccn(-c4ccc(S(C)(=O)=O)cc4)c3n2)cc1 [Example 3, (4-Isopropoxy-phenyl)-[7-(4-methanesulfonyl-phenyl)-7H-pyrrolo[2.3-d]pyrimidin-2-yl]-amine] | – | 9.4 | 98.5
4 | Cc1cc(Nc2ncc3ccn(-c4ccc(S(C)(=O)=O)cc4)c3n2)ccc1F [Example 81, (4-Fluoro-3-methyl-phenyl)-[7-(4-methanesulfonyl-phenyl)-7H-pyrrolo[2,3-d]pyrimidin-2-yl]-amine] | 2700 | 18 | –
5 | COc1cc(Nc2ncc3ccn(-c4ccc(C(=O)N5CCN(C)CC5)c(F)c4)c3n2)ccc1F [Example 154, {2-Fluoro-4-[2-(4-fluoro-3-methoxy-phenylamino)-pyrrolo[2,3-d]pyrimidin-7-yl]-phenyl}-(4-methyl-piperazin-1-yl)-methanone] | 6440 | 250 | –
6 | O=C(Cc1ccc(-n2ccc3cnc(Nc4ccc(C(F)(F)F)cc4)nc32)cc1)N1CCOCC1 [Example 144, 1-Morpholin-4-yl-2-{4-[2-(4-trifluoromethyl-phenylamino)-pyrrolo[2,3-d]pyrimidin-7-yl]-phenyl}-ethanone] | 475 | 4.7 | –
7 | COc1cc(Nc2ncc3cc(C)n(-c4ccc(CN5CCOCC5)c(F)c4)c3n2)ccc1F [Example 164, (4-Fluoro-3-methoxy-phenyl)-[7-(3-fluoro-4-morpholin-4-ylmethyl-phenyl)-6-methyl-7H-pyrrolo[2,3-d]pyrimidin-2-yl]-amine] | 10700 | 230 | –
8 | CC(C)Oc1ccc(Nc2ncc3ccn(-c4cc(F)c(C(=O)N5CCOCC5)c(F)c4)c3n2)cc1 [Example 82, {2,6-Difluoro-4-[2-(4-isopropoxy-phenylamino)-pyrrolo[2,3-d]pyrimidin-7-yl]-phenyl}-morpholin-4-yl-methanone] | 860 | 4.1 | –
9 | CS(=O)(=O)c1ccc(-n2ccc3cnc(Nc4ccc(F)c(C(F)(F)F)c4)nc32)cc1 [Example 80, (4-Fluoro-3-trifluoromethyl-phenyl)-[7-(4-methanesulfonyl-phenyl)-7H-pyrrolo[2,3-d]pyrimidin-2-yl]-amine] | 10000 | 430 | –
10 | CCN1CCN(C(=O)Cc2cccc(Nc3ncc4ccn(-c5cc(F)c(CN6CCOCC6)c(F)c5)c4n3)c2)CC1 [Example 172, 2-{3-[7-(3,5-Difluoro-4-morpholin-4-ylmethyl-phenyl)-7H-pyrrolo[2,3-d]pyrimidin-2-ylamino]-phenyl}-1-(4-ethyl-piperazin-1-yl)-ethanone] | 220 | < 3 | –
11 | CS(=O)(=O)c1ccc(-n2ccc3cnc(Nc4ccc(C5CCCN5)cc4)nc32)cc1 (stereo not shown) [Example 53, [7-(4-Methanesulfonyl-phenyl)-7H-pyrrolo[2,3-d]pyrimidin-2-yl]-(4-pyrrolidin-2-yl-phenyl)-amine] | 90.5 | < 3 | –
12 | Cc1ccc(Nc2ncc3ccn(-c4ccc(CN5CCS(=O)(=O)CC5)c(F)c4)c3n2)cc1Cl [Example 121, (3-Chloro-4-methyl-phenyl)-{7-[4-(1,1-dioxido-thiomorpholin-4-ylmethyl)-3-fluoro-phenyl]-7H-pyrrolo[2,3-d]pyrimidin-2-yl}-amine] | 152 | 15.5 | –
13 | CCN1CCN(C(=O)c2ccc(Nc3ncc4ccn(-c5cc(F)c(CN6CCOCC6)c(F)c5)c4n3)cc2)CC1 [Example 171, {4-[7-(3,5-Difluoro-4-morpholin-4-ylmethyl-phenyl)-7H-pyrrolo[2,3-d]pyrimidin-2-ylamino]-phenyl}-(4-ethyl-piperazin-1-yl)-methanone] | 260 | < 3 | –
14 | CCOc1ccc(Nc2ncc3cc(C)n(-c4ccc(CN5CCOCC5)c(F)c4)c3n2)cc1OCC [Example 168, (3,4-Diethoxy-phenyl)-[7-(3-fluoro-4-morpholin-4-ylmethyl-phenyl)-6-methyl-7H-pyrrolo[2,3-d]pyrimidin-2-yl]-amine] | 3900 | 30.5 | –
15 | O=C(c1ccc(-n2ccc3cnc(Nc4ccc(F)cc4)nc32)cc1)N1CCCC1 [Example 57, {4-[2-(4-Fluoro-phenylamino)-pyrrolo[2,3-d]pyrimidin-7-yl]-phenyl}-pyrrolidin-1-yl-methanone] | 772 | < 3 | –
16 | CC(C)Oc1ccc(Nc2ncc3ccn(-c4ccc(C(C)(C)C(=O)N5CCOCC5)cc4)c3n2)cc1 [Example 83, 2-{4-[2-(4-Isopropoxy-phenylamino)-pyrrolo[2,3-d]pyrimidin-7-yl]-phenyl}-2-methyl-1-morpholin-4-yl-propan-1-one] | 460 | < 3 | –
17 | CC(C)Oc1ccc(Nc2ncc3ccn(-c4ccc(CN5CCOCC5)cc4)c3n2)cc1 [Example 109, (4-Isopropoxy-phenyl)-[7-(4-morpholin-4-ylmethyl-phenyl)-7H-pyrrolo[2,3-d]pyrimidin-2-yl]-amine] | 310 | 8.3 | –

Further lines, results first:

Row | IC50 [1, 3] [nM] | IC50 [2] [nM] | IC50 ([1]; STAT1 translocation pathway) [nM] | SMILES
18 | 2210 | 23 | – | Cc1ccc(Nc2ncc3ccn(-c4ccc(C(=O)NCCN5CCN(C)CC5)c(F)c4)c3n2)cc1C [Example 298, 4-[2-(3,4-Dimethyl-phenylamino)-pyrrolo[2,3-d]pyrimidin-7-yl]-2-fluoro-N-[2-(4-methyl-piperazin-1-yl)-ethyl]-benzamide]
19 | 4270 | 24 | – | O=C(c1cncc(Nc2ncc3ccn(-c4cc(F)c(CN5CCOCC5)c(F)c4)c3n2)c1)N1CCOCC1 [Example 248, {5-[7-(3,5-Difluoro-4-morpholin-4-ylmethyl-phenyl)-7H-pyrrolo[2,3-d]pyrimidin-2-ylamino]-pyridin-3-yl}-morpholin-4-yl-methanone]
20 | 565 | 13 | – | Cc1ccc(Nc2ncc3ccn(-c4cc(F)c(CN5CCNC(=O)C5)c(F)c4)c3n2)cc1C [Example 312, 4-{4-[2-(3,4-Dimethyl-phenylamino)-pyrrolo[2,3-d]pyrimidin-7-yl]-2,6-difluoro-benzyl}-piperazin-2-one]
21 | 450 | 6.1 | – | COCCn1cc(Nc2ncc3ccn(-c4cc(F)c(C(=O)N5CCOCC5)c(F)c4)c3n2)cn1 [Example 251, (2,6-Difluoro-4-{2-[1-(2-methoxy-ethyl)-1H-pyrazol-4-ylamino]-pyrrolo[2,3-d]pyrimidin-7-yl}-phenyl)-morpholin-4-yl-methanone]
22 | 225 | < 3 | – | CN1CCN(c2cc(Nc3ncc4ccn(-c5cc(F)c(C(=O)N6CCOCC6)c(F)c5)c4n3)ccn2)CC1 [Example 243, (2,6-Difluoro-4-{2-[2-(4-methyl-piperazin-1-yl)-pyridin-4-ylamino]-pyrrolo[2,3-d]pyrimidin-7-yl}-phenyl)-morpholin-4-yl-methanone]
23 | 370 | 5.4 | – | Cn1cc(Nc2ncc3ccn(-c4cc(F)c(C(=O)N5CCOCC5)c(F)c4)c3n2)cn1 [Example 241, {2,6-Difluoro-4-[2-(1-methyl-1H-pyrazol-4-ylamino)-pyrrolo[2,3-d]pyrimidin-7-yl]-phenyl}-morpholin-4-yl-methanone]
24 | 202 | < 3 | – | CC(C)Oc1ccc(Nc2ncc3ccn(-c4cc(F)c(CN5CCS(=O)(=O)CC5)c(F)c4)c3n2)cc1 [Example 194, {7-[4-(1,1-Dioxido-thiomorpholin-4-ylmethyl)-3,5-difluoro-phenyl]-7H-pyrrolo[2,3-d]pyrimidin-2-yl}-(4-isopropoxy-phenyl)-amine]
25 | 1480 | 13.5 | – | Cc1ccc(Nc2ncc3ccn(-c4cc(F)c(CN5CCN(C)CC5)c(F)c4)c3n2)cc1C [Example 304, {7-[3,5-Difluoro-4-(4-methyl-piperazin-1-ylmethyl)-phenyl]-7H-pyrrolo[2,3-d]pyrimidin-2-yl}-(3,4-dimethyl-phenyl)-amine]
26 | 2680 | 26 | – | Cc1ccc(Nc2ncc3ccn(-c4cc(F)c(CN5CCN(C(C)C)CC5)c(F)c4)c3n2)cc1C [Example 305, {7-[3,5-Difluoro-4-(4-isopropyl-piperazin-1-ylmethyl)-phenyl]-7H-pyrrolo[2,3-d]pyrimidin-2-yl}-(3,4-dimethyl-phenyl)-amine]
27 | 260 | ≤ 3 | – | Cc1ccc(Nc2ncc3ccn(-c4cc(F)c(CN5CCOCC5)c(F)c4)c3n2)cc1CN1CCNC(=O)C1 [Example 334, 4-{5-[7-(3,5-Difluoro-4-morpholin-4-ylmethyl-phenyl)-7H-pyrrolo[2,3-d]pyrimidin-2-ylamino]-2-methyl-benzyl}-piperazin-2-one]
28 | 80 | < 3 | – | O=C1CN(Cc2ccc(Nc3ncc4ccn(-c5cc(F)c(C(=O)N6CCOCC6)c(F)c5)c4n3)cc2)CCN1 [Example 259, 4-(4-{7-[3,5-Difluoro-4-(morpholine-4-carbonyl)-phenyl]-7H-pyrrolo[2,3-d]pyrimidin-2-ylamino}-benzyl)-piperazin-2-one]
29 | 150 | 10 | – | O=C(c1c(F)cc(-n2ccc3cnc(Nc4ccc(CN5CCNC6(CC6)C5)cc4)nc32)cc1F)N1CCOCC1 [Example 257]
